Reference: patent US6441029B1, “Method of suppressing tumor growth with combinations of isoprenoids and statins” (Wisconsin Alumni Research Foundation, priority 1997, dated 2002)
“And” between values parts separate entries of the source, which are not always exact repeats. Equal entries are not always repeated.

How the values were obtained:
[1] = test system: implanted murine melanoma B16F10 tumors; conditions: 50 mg/kg administered ip on alternate days; cited from earlier work
[2] = up to 80 mg/d, five-year follow-up of 745 patients (14 observed, 21 predicted); cited from earlier work
[3] = cited from earlier work
[4] = test system: murine melanoma B16/F10 cells; test: In vitro growth assays of lovastatin, β-ionone and γ-tocotrienol alone and combined (Table 5); assay type: cell-based

Compound: CC[C@H](C)C(=O)O[C@H]1C[C@@H](C)C=C2C=C[C@H](C)[C@H](CC[C@@H]3C[C@@H](O)CC(=O)O3)[C@H]21 [Lovastatin, [1S[1a(R),3α,7β,8β(2S,4S),8aβ]]-1,2,3,7,8,8a-hexahydro-3,7-dimethyl-8-[2-(tetrahydro-4-hydroxy-6-oxo-2H-pyran-2-yl)ethyl]-1-maphthalenyl-2-methylbutanoate, reference compound]
- growth of implanted murine melanoma B16F10 tumors [1]: suppressed
- reduction in cancer incidence [2]: 33%
- dose level at which the incidence and severity of toxicity increased markedly ([3]; Phase I, 7-day courses given monthly, doses 2 to 45 mg/kg): 25 mg/kg
- total episodes of toxicity ([3]; sixty of 88 patients): 128 episodes
- Growth ([4]; 1.5 μmol/L): 71 % of Control
- decrease in cell growth ([4]; 2 μM): 50%
- Growth ([4]; 2 μmol/L): 50 % of Control and 60 % of Control
- Growth ([4]; 2 μmol/L, listed as lovastatin): 50 % of Control
- Growth ([4]; 3 μmol/L): 53 % of Control
- growth rate relative to controls ([4]; 1.9±0.3 μmol/l, protocol of He, et al.): 61.4±4.6 % the rate of controls
